Measured values: US12686665B2, “Bicyclic fused ring derivative or salt thereof and pharmaceutical composition comprising same” (YUHAN CORPORATION, priority 2021, dated 2026)
Where a name gives a salt, the structure may show the parent alone.

Columns and labels:
Type in all cases: biochemical
[1] = biological target: T1, recombinant human MAO-A (monoamine oxidase-A) (Homo sapiens, UniProt P21397); assay: Amplex Red HRP-coupled amine oxidase assay, recombinant human MAO-A; details: 0.5 mM tyramine substrate, read-out: Inhibitory activity (IC50, nM) MAO-A
T1 construct: purchased Sigma-Aldrich
T1 sequence (P21397 1-527): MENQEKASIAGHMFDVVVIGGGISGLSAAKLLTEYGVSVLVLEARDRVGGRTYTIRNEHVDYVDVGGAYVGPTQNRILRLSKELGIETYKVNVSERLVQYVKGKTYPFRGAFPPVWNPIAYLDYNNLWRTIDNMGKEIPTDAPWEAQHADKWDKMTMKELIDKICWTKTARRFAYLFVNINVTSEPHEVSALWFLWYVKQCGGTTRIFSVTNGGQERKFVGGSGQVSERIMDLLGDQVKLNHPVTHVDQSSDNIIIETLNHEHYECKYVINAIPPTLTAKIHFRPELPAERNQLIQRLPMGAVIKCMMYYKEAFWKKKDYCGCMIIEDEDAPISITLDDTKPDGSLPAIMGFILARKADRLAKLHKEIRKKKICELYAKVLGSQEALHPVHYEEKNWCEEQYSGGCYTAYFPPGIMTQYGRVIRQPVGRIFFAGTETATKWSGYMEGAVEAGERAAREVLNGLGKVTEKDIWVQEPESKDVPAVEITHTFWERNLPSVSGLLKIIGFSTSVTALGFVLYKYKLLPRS
Protocol: (§1) The activities of the compounds according to the present invention against recombinant human Lysyl Oxidase-Like 2 (recombinant human LOXL2, R&D systems) were evaluated by measuring the levels of hydrogen peroxide in the HRP (horseradish peroxidase) coupled reactions, with the Amplex Red Hydrogen Peroxide Assay Kit (Molecular Probes, Invitrogen, USA). The tests were carried out at 37° C., and putrescine was used as a substrate. In the HRP coupling reaction, the oxidation of 10-acetyl-3,7-dihydroxyphenoxazine (Amplex Red reagent) by hydrogen peroxide generates a fluorescent product, i.e., resorufin. Briefly, the test compounds were dissolved in dimethyl sulfoxide (DMSO) at a concentration of 20 mM. Dose-response measurements were carried out by serial dilutions in DMSO to generate a six-point curve. The upper concentration was adjusted according to the potency of the compound, and then diluted with the reaction buffer to obtain a final DMSO concentration of 1%. Purified human LOXL2 in 50 mM sodium phosphate buffer (pH7.4) was added to each well of a 96 well black plate. The test compounds dissolved in DMSO were incubated with the human LOXL2 enzyme at 37° C. for 60 minutes. After the incubation for 60 minutes, a reaction mixture containing 400 μM Amplex Red reagent, 30 mM putrescine, and 2 U/mL HRP in 50 mM sodium phosphate buffer (pH 7.4) was added to each well. Fluorescence was measured with a microplate reader (Flexstation3, Molecular Devices), under the conditions of excitation at 530 nm and emission at 590 nm, 1 hour after the addition of the mixture. Inhibition by each compound was measured as % reduction in signal, compared to the control without an inhibitor (diluted DMSO only). The data were fixed to a four-variable logistic model, and […] values were calculated using the GraphPad Prism program.
(§2) And, the activities of the compounds according to the present invention against recombinant human MAO-A (monoamine oxidase-A, Sigma-Aldrich) and recombinant human MAO-B (monoamine oxidase-B, Sigma-Aldrich) were evaluated in a similar manner to the activity evaluation method for recombinant human LOXL2, using 0.5 mM tyramine and 1 mM benzylamine as a substrate, respectively. In addition, the activities of the compounds according to the present invention against recombinant human DAO (diamine oxidase, R&D systems) were evaluated in a similar manner to the activity evaluation method for recombinant human LOXL2, using 1 mM putrescine as a substrate.

[2] = biological target: T2, recombinant human Lysyl Oxidase-Like 2 (LOXL2) (Homo sapiens, UniProt Q9Y4K0); assay: Amplex Red HRP-coupled amine oxidase assay, recombinant human LOXL2; details: 60 min incubation with enzyme at 37° C., putrescine substrate, read-out: Inhibitory activity (IC50, nM) human LOXL2
T2 construct: purchased R&D systems
T2 sequence (Q9Y4K0 26-774): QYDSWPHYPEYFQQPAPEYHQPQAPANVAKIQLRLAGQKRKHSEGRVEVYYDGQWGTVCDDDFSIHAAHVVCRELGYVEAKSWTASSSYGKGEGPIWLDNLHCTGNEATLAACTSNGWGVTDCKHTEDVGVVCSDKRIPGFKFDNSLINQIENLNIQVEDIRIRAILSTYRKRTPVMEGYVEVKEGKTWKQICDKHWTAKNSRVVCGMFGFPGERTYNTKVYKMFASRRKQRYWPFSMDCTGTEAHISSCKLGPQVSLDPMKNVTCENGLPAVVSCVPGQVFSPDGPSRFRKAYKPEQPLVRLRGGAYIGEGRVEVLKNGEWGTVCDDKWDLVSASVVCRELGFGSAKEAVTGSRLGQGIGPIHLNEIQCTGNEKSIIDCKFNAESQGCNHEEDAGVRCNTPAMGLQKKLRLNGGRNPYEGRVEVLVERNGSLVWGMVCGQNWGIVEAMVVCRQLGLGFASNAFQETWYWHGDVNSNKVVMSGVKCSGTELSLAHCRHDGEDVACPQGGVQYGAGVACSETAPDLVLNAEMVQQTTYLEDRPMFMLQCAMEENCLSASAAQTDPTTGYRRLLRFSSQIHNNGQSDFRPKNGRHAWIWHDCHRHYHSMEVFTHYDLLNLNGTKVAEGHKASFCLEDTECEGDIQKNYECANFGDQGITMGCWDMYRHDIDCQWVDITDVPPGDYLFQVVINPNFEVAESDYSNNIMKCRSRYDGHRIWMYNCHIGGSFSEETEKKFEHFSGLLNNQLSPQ
Outline: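 Putrescine substrate (30 mM) in 50 mM sodium phosphate pH 7.4, 37 °C; compounds preincubated 60 min with enzyme, 1% DMSO final, six-point curves. H2O2 detected via 400 μM Amplex Red/2 U/mL HRP, fluorescence (ex 530/em 590 nm) after 1 h; IC50 from four-parameter logistic fit of % signal reduction.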

[3] = biological target: T3, recombinant human MAO-B (monoamine oxidase-B) (Homo sapiens, UniProt P27338); assay: Amplex Red HRP-coupled amine oxidase assay, recombinant human MAO-B; details: 1 mM benzylamine substrate, read-out: Inhibitory activity (IC50, nM) MAO-B
T3 construct: purchased Sigma-Aldrich
T3 sequence (P27338 1-520): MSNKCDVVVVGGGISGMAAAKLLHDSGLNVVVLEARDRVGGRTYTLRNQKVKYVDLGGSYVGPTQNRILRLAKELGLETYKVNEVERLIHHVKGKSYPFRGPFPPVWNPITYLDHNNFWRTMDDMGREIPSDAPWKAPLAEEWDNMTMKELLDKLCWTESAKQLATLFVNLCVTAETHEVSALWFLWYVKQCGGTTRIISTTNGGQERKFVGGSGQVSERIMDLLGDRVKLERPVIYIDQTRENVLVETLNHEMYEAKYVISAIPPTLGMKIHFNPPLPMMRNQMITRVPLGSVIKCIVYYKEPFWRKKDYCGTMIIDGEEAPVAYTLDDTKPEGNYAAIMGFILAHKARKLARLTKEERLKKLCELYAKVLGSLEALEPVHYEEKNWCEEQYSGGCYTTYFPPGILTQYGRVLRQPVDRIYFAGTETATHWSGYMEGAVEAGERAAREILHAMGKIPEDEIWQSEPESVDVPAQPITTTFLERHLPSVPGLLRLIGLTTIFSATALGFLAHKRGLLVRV
Protocol: as §1, §2

[4] = biological target: T4, recombinant human DAO (diamine oxidase) (Homo sapiens, UniProt P19801); assay: Amplex Red HRP-coupled amine oxidase assay, recombinant human DAO; details: 1 mM putrescine substrate, read-out: Inhibitory activity (IC50, nM) DAO
T4 construct: purchased R&D systems
T4 sequence (P19801 20-751): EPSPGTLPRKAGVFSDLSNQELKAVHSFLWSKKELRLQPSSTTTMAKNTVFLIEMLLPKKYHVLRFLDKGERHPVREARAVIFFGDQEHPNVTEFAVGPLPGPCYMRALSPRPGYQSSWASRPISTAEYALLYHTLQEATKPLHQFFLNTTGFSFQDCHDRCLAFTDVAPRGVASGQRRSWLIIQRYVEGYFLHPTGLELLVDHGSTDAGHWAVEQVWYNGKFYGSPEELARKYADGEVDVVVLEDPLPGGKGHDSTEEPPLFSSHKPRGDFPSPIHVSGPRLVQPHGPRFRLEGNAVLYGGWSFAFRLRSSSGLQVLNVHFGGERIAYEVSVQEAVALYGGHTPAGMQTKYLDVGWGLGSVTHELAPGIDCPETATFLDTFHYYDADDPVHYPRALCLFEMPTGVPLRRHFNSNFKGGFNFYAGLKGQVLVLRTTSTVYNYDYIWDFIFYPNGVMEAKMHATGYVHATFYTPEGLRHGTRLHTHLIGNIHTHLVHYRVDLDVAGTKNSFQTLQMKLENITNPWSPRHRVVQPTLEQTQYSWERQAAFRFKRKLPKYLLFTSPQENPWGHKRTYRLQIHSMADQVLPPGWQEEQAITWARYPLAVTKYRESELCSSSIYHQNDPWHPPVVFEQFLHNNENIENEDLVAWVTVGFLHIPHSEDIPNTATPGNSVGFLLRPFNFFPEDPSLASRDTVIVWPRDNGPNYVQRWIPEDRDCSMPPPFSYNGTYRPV
Protocol: as §1, §2

COC(=O)c1cc(-c2cccc(S(=O)(=O)N3CCCC3)c2)c2ncn(C/C(F)=C/CN)c2c1 [Example 23, methyl (Z)-1-(4-amino-2-fluorobut-2-en-1-yl)-4-(3-(pyrrolidin-1-ylsulfonyl)phenyl)-1H-benzo[d]imidazol-6-carboxylate hydrochloride]
IC50 [1]: > 100000 nM
IC50 [2]: 16.7 nM
IC50 [3]: > 100000 nM
IC50 [4]: 986 nM

Cc1nc2c(-c3cccc(S(=O)(=O)N4CCCC4)c3)cccc2n1C/C(F)=C/CN [Example 60, (Z)-3-fluoro-4-(2-methyl-4-(3-(pyrrolidin-1-ylsulfonyl)phenyl)-1H-benzo[d]imidazol-1-yl)but-2-en-1-amine hydrochloride]
IC50 [1]: 64200 nM
IC50 [2]: 92 nM
IC50 [3]: > 100000 nM
IC50 [4]: 636 nM

Cc1nc2c(-c3cccc(S(=O)(=O)N(C)C)c3)cccc2n1C/C(F)=C/CN [Example 56, (Z)-3-(1-(4-amino-2-fluorobut-2-en-1-yl)-2-methyl-1H-benzo[d]imidazol-4-yl)-N,N-dimeth ylbenzenesulfonamide hydrochloride]
IC50 [1]: 6540 nM
IC50 [2]: 74 nM
IC50 [3]: > 100000 nM
IC50 [4]: 227 nM

CS(=O)(=O)c1cccc(-c2cc(F)cc3c2ncn3C/C(F)=C/CN)c1 [Example 3, (Z)-3-fluoro-4-(6-fluoro-4-(3-(methylsulfonyl)phenyl)-1H-benzo[d]imidazol-1-yl)but-2-en-1-amine hydrochloride]
IC50 [1]: > 100000 nM
IC50 [2]: 54 nM
IC50 [3]: 71200 nM
IC50 [4]: 2940 nM

CNS(=O)(=O)c1ccc(OC)c(-c2cc(C(=O)OC)cc3c2nnn3C/C(F)=C/CN)c1 [Example 117, methyl (Z)-1-(4-amino-2-fluorobut-2-en-1-yl)-4-(2-methoxy-5-(N-methylsulfamoyl)phenyl)-1H-benzo[d][1,2,3]triazol-6-carboxylate hydrochloride]
IC50 [1]: > 100000 nM
IC50 [2]: 11.9 nM
IC50 [3]: 46600 nM
IC50 [4]: 4440 nM

COC(=O)c1cc(-c2cccc(S(=O)(=O)N(C)C)c2)c2ncn(C/C(F)=C/CN)c2c1 [Example 31, methyl (Z)-1-(4-amino-2-fluorobut-2-en-1-yl)-4-(3-(N,N-dimethysulfamoyl)phenyl)-1H-benzo[d]imidazol-6-carboxylate hydrochloride]
IC50 [1]: 24600 nM
IC50 [2]: 19.4 nM
IC50 [3]: > 100000 nM
IC50 [4]: 139 nM

Cn1nccc1-c1cc(C(F)(F)F)cc2c1ncn2C/C(F)=C/CN [Example 176, (Z)-3-fluoro-4-(4-(1-methyl-1H-pyrazol-5-yl)-6-(trifluoromethyl)-1H-benzo[d]imidazol-1-yl) but-2-en-1-yl-amine hydrochloride]
IC50 [1]: > 100000 nM
IC50 [2]: 92.4 nM
IC50 [3]: > 100000 nM
IC50 [4]: 26700 nM

CCN(CC)S(=O)(=O)c1ccc(OC)c(-c2cc(C(=O)OC)cc3c2nnn3C/C(F)=C/CN)c1 [Example 119, methyl (Z)-1-(4-amino-2-fluorobut-2-en-1-yl)-4-(5-(N,N-diethylsulfamoyl)-2-methoxyphenyl)-1H-benzo[d][1,2,3]triazol-6-carboxylate hydrochloride]
IC50 [1]: > 100000 nM
IC50 [2]: 47.3 nM
IC50 [3]: > 100000 nM
IC50 [4]: 14500 nM

COC(=O)c1cc(-c2cccc(S(=O)(=O)NC3CC3)c2)c2ncn(C/C(F)=C/CN)c2c1 [Example 29, methyl (Z)-1-(4-amino-2-fluorobut-2-en-1-yl)-4-(3-(N-cyclopropylsulfamoyl)phenyl)-1H-benzo[d]imidazol-6-carboxylate hydrochloride]
IC50 [1]: > 100000 nM
IC50 [2]: 34.9 nM
IC50 [3]: > 100000 nM
IC50 [4]: 1370 nM

NC/C=C(\F)Cn1nnc2c(-c3cccc(S(=O)(=O)N4CCC(F)(F)C4)c3)cccc21 [Example 103, (Z)-4-(4-(3-((3,3-difluoropyrrolidin-1-yl)sulfonyl)phenyl)-1H-benzo[d][1,2,3]triazol-1-yl)-3-fluorobut-2-en-1-amine hydrochloride]
IC50 [1]: 9060 nM
IC50 [2]: 25 nM
IC50 [3]: 23500 nM
IC50 [4]: 27900 nM
